Test results: patent US11453660B2, “Androgen receptor and glucocorticoid receptor modulators” (ONCOSTELLAE, S.L., priority 2017, dated 2022)

The compounds below were run against T1, Human Glucocorticoid Receptor (Homo sapiens, UniProt P04150) (assay: Competition Binding in IM-9 Human Glucocorticoid Receptor (GR IM-9)). Details: cytosol from IM-9 cell line, 1.5 nM [3H]-Dexamethasone, 4° C. for 6 hours.
T1 construct: endogenous in cells; host or cells: cytosol from IM-9 cell line
T1 sequence (P04150 1-777): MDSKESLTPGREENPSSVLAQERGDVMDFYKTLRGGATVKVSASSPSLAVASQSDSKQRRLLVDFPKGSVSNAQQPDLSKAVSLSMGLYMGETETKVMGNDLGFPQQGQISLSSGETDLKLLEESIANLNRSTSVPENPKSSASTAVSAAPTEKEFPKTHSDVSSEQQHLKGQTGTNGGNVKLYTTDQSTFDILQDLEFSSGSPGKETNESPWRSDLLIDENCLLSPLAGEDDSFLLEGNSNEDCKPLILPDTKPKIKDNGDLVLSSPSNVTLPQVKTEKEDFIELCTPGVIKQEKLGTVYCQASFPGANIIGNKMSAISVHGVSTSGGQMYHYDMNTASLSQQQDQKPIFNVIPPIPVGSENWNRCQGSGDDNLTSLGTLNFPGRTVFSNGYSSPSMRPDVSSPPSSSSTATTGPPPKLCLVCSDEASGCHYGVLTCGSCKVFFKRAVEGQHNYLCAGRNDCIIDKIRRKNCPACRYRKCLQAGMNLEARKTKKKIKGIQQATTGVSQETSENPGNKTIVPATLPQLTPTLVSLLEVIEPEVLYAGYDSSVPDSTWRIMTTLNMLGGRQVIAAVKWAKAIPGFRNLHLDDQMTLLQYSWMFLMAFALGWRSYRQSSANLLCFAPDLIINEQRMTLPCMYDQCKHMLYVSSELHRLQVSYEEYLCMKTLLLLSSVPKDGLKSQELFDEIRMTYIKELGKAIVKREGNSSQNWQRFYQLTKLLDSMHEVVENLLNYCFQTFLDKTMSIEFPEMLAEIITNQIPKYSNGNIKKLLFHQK
Experimental: Competition Binding in IM-9 Human Glucocorticoid Receptor (GR IM-9)
Glucocorticoid receptor competition binding assays were carried out in a polypropilene 96-well plate. In each well was incubated 100 μg of cytosol from IM-9 cell line, 1.5 nM [3H]-Dexamethasone (71 Ci/mmol, 1 mCi/ml, Perkin Elmer NET1192001MC) and compounds studied and standard. Non-specific binding was determined in the presence of Triamcinolone 10 μM (Sigma Aldrich T6376).
The reaction mixture (Vt: 200 μl/well) was incubated at 4° C. for 6 hours, 180 μL was transferred to GF/B 96-well plate (Millipore, Madrid, Spain) pretreated with 0.5% of PEI and treated with binding buffer (TES 10 mM, sodium molybdate 10 mM, EDTA 1 mM, pH 7.4, 2-mercaptoethanol 20 mM, Glycerol 10%) after was filtered and washed six times with 250 μl wash buffer (TES 10 mM, sodium molybdate 10 mM, EDTA 1 mM, pH 7.4, 2-mercaptoethanol 20 mM Glycerol 10%), before measuring in a microplate beta scintillation counter (Microbeta Trilux, PerkinElmer, Madrid, Spain).

Structure (SMILES)	IC50 [nM]
CC(=O)C1=C(C)NC(C2CC2)=C(C(=O)OC(C)C)C1c1csc2c(Br)cccc12 (stereo not drawn) [Example C82, Isopropyl 5-acetyl-4-(7-bromobenzo[b]thiophen-3-yl)-2-cyclopropyl-6-methyl-1,4-dihydropyridine-3-carboxylate]	< 100
COC(=O)C1=C(C(F)(F)F)NC(N)=C(C(=O)OCC2CC2)C1c1csc2c(C#N)cccc12 (stereo not drawn) [Example D56, 3-(Cyclopropylmethyl) 5-methyl 2-amino-4-(7-cyanobenzo[b]thiophen-3-yl)-6-(trifluoromethyl)-1,4-dihydropyridine-3,5-dicarboxylate]	< 100
CC(=O)C1=C(C)NC(C)=C(C(=O)OC(C)(C)c2ccccc2)C1c1csc2c(Br)cccc12 (stereo not drawn) [Example C86, 2-phenylpropan-2-yl 5-acetyl-4-(7-bromobenzo[b]thiophen-3-yl)-2,6-dimethyl-1,4-dihydropyridine-3-carboxylate]	100 to 1000
CC(=O)C1=C(C)NC(N)=C(C(=O)OCC2CC2)C1c1csc2c(C#N)cccc12 (stereo not drawn) [Example D10, Cyclopropylmethyl 5-acetyl-2-amino-4-(7-cyanobenzo[b]thiophen-3-yl)-6-methyl-1,4-dihydropyridine-3-carboxylate]	< 100
COC(=O)C1=C(C2CC2)NC(C)=C(C(C)=O)C1c1csc2c(-c3ccncc3)cccc12 (stereo not drawn) [Example L13, Methyl 5-acetyl-2-cyclopropyl-6-methyl-4-(7-(pyridin-4-yl)benzo[b]thiophen-3-yl)-1,4-dihydropyridine-3-carboxylate]	100 to 1000
COC(=O)C1=C(C2CCCC2)NC(C)=C(C(C)=O)C1c1csc2c(Br)cccc12 (stereo not drawn) [Example C105, Methyl 5-acetyl-4-(7-bromobenzo[b]thiophen-3-yl)-2-cyclopentyl-6-methyl-1,4-dihydropyridine-3-carboxylate]	100 to 1000
COC(=O)C1=C(N)NC(C)=C(C(C)=O)C1c1csc2c(C#N)cccc12 (stereo not drawn) [Example D5, Methyl 5-acetyl-2-amino-4-(7-cyanobenzo[b]thiophen-3-yl)-6-methyl-1,4-dihydropyridine-3-carboxylate]	< 100
COC(=O)C1=C(NC(C)=O)NC(C)=C(C(C)=O)C1c1csc2ncc(F)cc12 (stereo not drawn) [Example D15, Methyl 2-acetamido-5-acetyl-4-(5-fluorothieno[2,3-b]pyridin-3-yl)-6-methyl-1,4-dihydropyridine-3-carboxylate]	100 to 1000
COC(=O)C1=C(C2CC2)NC(C)=C(C#N)C1c1csc2c(C#N)cccc12 (stereo not drawn) [Example C104, Methyl 5-cyano-4-(7-cyanobenzo[b]thiophen-3-yl)-2-cyclopropyl-6-methyl-1,4-dihydropyridine-3-carboxylate]	< 100
CC(=O)C1=C(C)NC(C2CC2)=C(C(=O)OCC2CC2)C1c1csc2ncccc12 (stereo not drawn) [Example C99, Cyclopropylmethyl 5-acetyl-2-cyclopropyl-6-methyl-4-(thieno[2,3-b]pyridin-3-yl)-1,4-dihydropyridine-3-carboxylate]	100 to 1000
COC(=O)C1=C(COCCN)NC(C)=C(C(C)=O)C1c1csc2c(C#N)cccc12 (stereo not drawn) [Example C116, Methyl 5-acetyl-2-((2-aminoethoxy)methyl)-4-(7-cyanobenzo[b]thiophen-3-yl)-6-methyl-1,4-dihydropyridine-3-carboxylate]	100 to 1000
COC(=O)C1=C(C)NC(N)=C(C(=O)OCC2CC2)C1c1csc2c(C#N)cccc12 (stereo not drawn) [Example D17, 3-(cyclopropylmethyl) 5-methyl 2-amino-4-(7-cyanobenzo[b]thiophen-3-yl)-6-methyl-1,4-dihydropyridine-3,5-dicarboxylate]	< 100

The remaining lines, values ahead:

IC50 [nM]	Structure (SMILES)
< 100	CC(=O)C1=C(C)NC(C)=C(C(=O)OC(C)(C)c2ccc(F)cc2)C1c1csc2ncccc12 (stereo not drawn) [Example C95, 2-(4-fluorophenyl)propan-2-yl 5-acetyl-2,6-dimethyl-4-(thieno[2,3-b]pyridin-3-yl)-1,4-dihydropyridine-3-carboxylate]
< 100	COC(=O)C1=C(C)NC(N)=C(C(=O)OCC2CC2)C1c1csc2c(C#N)cc(C#N)cc12 (stereo not drawn) [Example D48, 3-(Cyclopropylmethyl) 5-methyl 2-amino-4-(5,7-dicyanobenzo[b]thiophen-3-yl)-6-methyl-1,4-dihydropyridine-3,5-dicarboxylate]
100 to 1000	O=C(OCc1ccc(F)cc1)C1=C(C2CC2)NC(C2CC2)=C(C(=O)OCc2ccc(F)cc2)C1c1csc2ncccc12 [Example J42-a, bis(4-fluorobenzyl) 2,6-dicyclopropyl-4-(thieno[2,3-b]pyridin-3-yl)-1,4-dihydropyridine-3,5-dicarboxylate]
< 100	CC(=O)C1=C(C)NC(N)=C(C(=O)OC2CCC(F)(F)CC2)C1c1csc2c(C#N)cccc12 (stereo not drawn) [Example D11, 4,4-difluorocyclohexyl 5-acetyl-2-amino-4-(7-cyanobenzo[b]thiophen-3-yl)-6-methyl-1,4-dihydropyridine-3-carboxylate]
< 100	CC(=O)C1=C(C)NC(C2CC2)=C(C(=O)OC(C)(C)c2ccc(F)cc2)C1c1csc2ncccc12 (stereo not drawn) [Example C97, 2-(4-fluorophenyl)propan-2-yl 5-acetyl-2-cyclopropyl-6-methyl-4-(thieno[2,3-b]pyridin-3-yl)-1,4-dihydropyridine-3-carboxylate]
< 100	CC(=O)C1=C(C)NC(C2CC2)=C(C(=O)OC2COC2)C1c1csc2c(Br)cccc12 (stereo not drawn) [Example C81, Oxetan-3-yl 5-acetyl-4-(7-bromobenzo[b]thiophen-3-yl)-2-cyclopropyl-6-methyl-1,4-dihydropyridine-3-carboxylate]
100 to 1000	CC(=O)C1=C(C)NC(C)=C(C(=O)OCc2ccnc(Cl)c2)C1c1csc2ncccc12 (stereo not drawn) [Example C77, (2-chloropyridin-4-yl)methyl 5-acetyl-2,6-dimethyl-4-(thieno[2,3-b]pyridin-3-yl)-1,4-dihydropyridine-3-carboxylate]
< 100	COC(=O)C1=C(C2CC2)NC(N)=C(C(=O)OCC2CC2)C1c1csc2c(C#N)cccc12 (stereo not drawn) [Example D19, 3-(cyclopropylmethyl) 5-methyl 2-amino-4-(7-cyanobenzo[b]thiophen-3-yl)-6-cyclopropyl-1,4-dihydropyridine-3,5-dicarboxylate]
100 to 1000	CC(=O)C1=C(C)NC(C)=C(C(=O)OCc2ccnc(-c3ccncc3)c2)C1c1csc2ncccc12 (stereo not drawn) [Example L12, [2,4′-bipyridin]-4-ylmethyl 5-acetyl-2,6-dimethyl-4-(thieno[2,3-b]pyridin-3-yl)-1,4-dihydropyridine-3-carboxylate]
≥ 1000	COC(=O)C1=C(C2CC2)NC(C)=C(C(C)=O)C1c1csc2c(C3CC3)cccc12 (stereo not drawn) [Example L14, Methyl 5-acetyl-2-cyclopropyl-4-(7-cyclopropylbenzo[b]thiophen-3-yl)-6-methyl-1,4-dihydropyridine-3-carboxylate]
< 100	CC(=O)C1=C(C)NC(C2CC2)=C(C(=O)OCC2CC2)C1c1csc2c(C#N)cccc12 (stereo not drawn) [Example C101, Cyclopropylmethyl 5-acetyl-4-(7-cyanobenzo[b]thiophen-3-yl)-2-cyclopropyl-6-methyl-1,4-dihydropyridine-3-carboxylate]
100 to 1000	CC(=O)C1=C(C)NC(C2CC2)=C(C(=O)C2CC2)C1c1csc2c(Br)cccc12 (stereo not drawn) [Example C93, 1-(4-(7-Bromobenzo[b]thiophen-3-yl)-5-(cyclopropanecarbonyl)-6-cyclopropyl-2-methyl-1,4-dihydropyridin-3-yl)ethan-1-one]
< 100	COC(=O)C1=C(C)NC(N)=C(C(=O)OCC2CC2)C1c1csc2c(C#N)ccnc12 (stereo not drawn) [Example D44, 3-(Cyclopropylmethyl) 5-methyl 2-amino-4-(7-cyanothieno[3,2-b]pyridin-3-yl)-6-methyl-1,4-dihydropyridine-3,5-dicarboxylate]
< 100	COC(=O)C1=C(C)NC(N)=C(C(=O)OCC2CC2)C1c1csc2c(C#N)c(Cl)ccc12 (stereo not drawn) [Example D52, 3-(Cyclopropylmethyl) 5-methyl 2-amino-4-(6-chloro-7-cyanobenzo[b]thiophen-3-yl)-6-methyl-1,4-dihydropyridine-3,5-dicarboxylate]
< 100	CC(=O)C1=C(C)NC(N)=C(C(=O)OC2CCCC2)C1c1csc2c(C#N)cccc12 (stereo not drawn) [Example D8, Cyclopentyl 5-acetyl-2-amino-4-(7-cyanobenzo[b]thiophen-3-yl)-6-methyl-1,4-dihydropyridine-3-carboxylate]
